These results are taken from BindingDB's records for doi:10.7270/Q2TX3CTT (Broad Institute, 2010).

pEC50: −log10 of the molar value. Where a name gives a salt, the structure may show the parent alone.

One may read the pEC50 as the negative decadic logarithm of the EC50, by convention in mol/L. Lower therefore signals a large EC50.

The target of the assay is Glycogen synthase kinase-3 beta (Homo sapiens, UniProt P49841). Briefly: GSK3beta kinase inhibitor potency, dose response, biochemical, luminescence, cell-free homogeneous, retest (AID 434954).
Glycogen synthase kinase-3 beta, sequence (P49841 whole entry): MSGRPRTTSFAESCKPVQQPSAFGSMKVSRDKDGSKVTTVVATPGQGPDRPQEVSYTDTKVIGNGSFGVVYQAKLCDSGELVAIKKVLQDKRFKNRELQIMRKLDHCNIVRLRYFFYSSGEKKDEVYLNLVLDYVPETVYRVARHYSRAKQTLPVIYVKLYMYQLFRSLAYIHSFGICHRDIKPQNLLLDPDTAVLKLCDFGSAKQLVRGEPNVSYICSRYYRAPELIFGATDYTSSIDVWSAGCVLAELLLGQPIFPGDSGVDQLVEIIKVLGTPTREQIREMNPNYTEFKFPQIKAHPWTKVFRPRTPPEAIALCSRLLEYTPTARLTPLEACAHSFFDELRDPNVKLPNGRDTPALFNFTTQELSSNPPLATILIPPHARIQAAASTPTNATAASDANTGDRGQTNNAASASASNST
As for `N#Cc1c(-c2ccccc2)nc(SCC(=O)NC2CCCCC2)[nH]c1=O` [2-[(5-cyano-4-oxo-6-phenyl-1H-pyrimidin-2-yl)sulfanyl]-N-cyclohexylacetamide], the pEC50 was less than 3.52.
In turn, `Cc1ccc(C)c(Nc2nc(-c3ccncc3)nc3ccccc23)c1` showed a pEC50 of less than 3.52.
Consider `COC(=O)CSc1ncnc2c1sc1nc(N3CCOCC3)c3c(c12)CCCC3` [MLS000535174], for which the pEC50 is less than 3.52.
`Nc1nonc1-n1nnc(C(=O)NN=Cc2ccoc2)c1CSc1ccccc1` [1-(4-azanyl-1,2,5-oxadiazol-3-yl)-N-(furan-3-ylmethylideneamino)-5-(phenylsulfanylmethyl)-1,2,3-triazole-4-carboxamide] showed a pEC50 of less than 3.52.
Under `CCCCn1nc(NC(=O)CC)c2cc3cc(OC)ccc3nc21` [N-(1-butyl-6-methoxy-pyrazolo[3,4-b]quinolin-3-yl)propanamide] stands 4.36; under `Cc1ccccc1NC(=O)CSc1nc(N)c(C#N)c(-c2cccs2)c1C#N` [2-(6-amino-3,5-dicyano-4-thiophen-2-ylpyridin-2-yl)sulfanyl-N-(2-methylphenyl)acetamide], less than 3.52; under `CC(C)Sc1nc2c(c(=O)[nH]1)C(c1cccs1)C1C(=O)CC(C)(C)CC1=N2` (centres undefined) [8,8-dimethyl-2-propan-2-ylsulfanyl-5-thiophen-2-yl-5,7,9,10-tetrahydro-1H-pyrimido[4,5-b]quinoline-4,6-dione], less than 3.52.
For `COc1ccc(Nc2nc(-c3ccccc3)c(C(=O)Nc3cccnc3)s2)cc1` [MLS001018742] the value was less than 3.52; for `O=C(Nc1ccnn1C1CCN(Cc2cccc(OCCO)c2)CC1)C1CCCC1` [N-[2-[1-[[3-(2-hydroxyethyloxy)phenyl]methyl]piperidin-4-yl]pyrazol-3-yl]cyclopentanecarboxamide], less than 3.52.
For `CN(C)CCCNc1ccc(-c2cc(Nc3cccc(Cl)c3)ncn2)cn1` [SMR000463569] the value was 4.91; for `Cn1cc(S(=O)(=O)NCc2ccc(F)cc2)c(=O)n(C)c1=O`, less than 3.52; for `CN(C)c1nc(-c2ccccc2)nc(-c2ccc(Cl)cc2)c1C#N` [4-(4-chlorophenyl)-6-(dimethylamino)-2-phenylpyrimidine-5-carbonitrile], less than 3.52.
In the case of `CCN1C(=O)[C@H]2[C@@H](c3ccc(-c4ccccc4)cc3)N[C@@](CC(C)C)(C(=O)OC)[C@H]2C1=O` [SMR000814381], the pEC50 is less than 3.52.
`Cc1ccccc1-c1nnc(SCc2ccccc2F)o1` [2-[(2-fluorobenzyl)thio]-5-(2-methylphenyl)-1,3,4-oxadiazole]: the pEC50 is less than 3.52.
Compound `CCNc1ccc(S(=O)(=O)N(C)C)cc1NCC(=O)Nc1ccc(Br)cc1F` [N-(4-bromanyl-2-fluoranyl-phenyl)-2-[[5-(dimethylsulfamoyl)-2-(ethylamino)phenyl]amino]ethanamide] gave a pEC50 of less than 3.52.
Compound `O=C1CN(C(=O)c2ccco2)c2ccccc2N1` [4-(Furan-2-carbonyl)-3,4-dihydro-1H-quinoxalin-2-one] gave a pEC50 of less than 3.52.
Under `CN1CCN(C(=O)Cn2ncc3c([nH]c4ccccc43)c2=O)CC1` [3-[2-(4-methylpiperazin-1-yl)-2-oxidanylidene-ethyl]-2H-pyridazino[4,5-b]indol-4-one] stands less than 3.52.
The compound `O=C(O)Cn1c(=O)c2c3c(sc2n(Cc2ccccc2F)c1=O)CCCC3` [SMR000544593] had a pEC50 of less than 3.52.
Turning to `Cc1ccc2nc3c(cc2c1)c(NC(=O)c1ccco1)nn3CC(C)C` [Furan-2-carboxylic acid (1-isobutyl-6-methyl-1H-pyrazolo[3,4-b]quinolin-3-yl)-amide], the pEC50 was less than 3.52.
Under `CC1=C(C(=O)OCC2CCCO2)C(c2ccsc2)C2C(=O)CC(C)(C)CC2=N1` (centres undefined) [SMR000279706] stands less than 3.52; under `CCCN(CCC)Cc1c(C(=O)NN=CCCc2ccccc2)nnn1-c1nonc1N` [1-(4-amino-1,2,5-oxadiazol-3-yl)-5-[(dipropylamino)methyl]-N-(3-phenylpropylideneamino)-4-triazolecarboxamide], 5.13.
`O=C(CCc1nnc(CCCCc2ccccc2)o1)NCc1cccc(F)c1` [N-(3-fluorobenzyl)-3-[5-(4-phenylbutyl)-1,3,4-oxadiazol-2-yl]propanamide]: the pEC50 is less than 3.52.
Turning to `Nc1ncc(-c2ccccc2)c(-c2ccc(O)cc2O)n1`, the pEC50 is 5.11.
In turn, `CCCNc1nc(N)nc(-c2cc(Cl)ccc2OC)n1` [MLS000538216] showed a pEC50 of less than 3.52.
`CC1(C)CC(CC(=O)NC(=S)Nc2ccc([N+](=O)[O-])cc2)C(=O)O1` (centres undefined) [2-(5,5-dimethyl-2-oxotetrahydro-3-furanyl)-N-{[(4-nitrophenyl)amino]carbonothioyl}acetamide] gave a pEC50 of 4.57.
Under `COc1cccc(C2C(C(=O)OCc3ccccc3)C(C)=Nc3ncnn32)c1OC` (centres undefined) [(phenylmethyl) 7-(2,3-dimethoxyphenyl)-5-methyl-1,7-dihydro-[1,2,4]triazolo[1,5-a]pyrimidine-6-carboxylate] stands 5.42.
Under `CCOC(=O)c1c(-c2ccc(C)o2)csc1N` stands less than 3.52; under `CCOC(=O)c1cnc2ccc(OCC)cc2c1N1CCN(c2ccccc2)CC1` [SMR000130091], 4.54; under `CCSc1ncnc2c(C#N)c3n(c12)CCCCC3` [4-ethylsulfanyl-7,8,9,10-tetrahydro-6H-pyrimido[3,4]pyrrolo[3,5-a]azepine-11-carbonitrile], 4.11.
In the case of `CCCCCCN1C(=O)NC(=O)C(=CNCCCn2ccnc2)C1=O` [(5E)-1-hexyl-5-[[3-(1-imidazolyl)propylamino]methylidene]-1,3-diazinane-2,4,6-trione], the pEC50 is 4.84.
`COC(=O)c1nnn(-c2nonc2N)c1COc1ccc(C=O)cc1OC` [methyl 1-(4-azanyl-1,2,5-oxadiazol-3-yl)-5-[(4-methanoyl-2-methoxy-phenoxy)methyl]-1,2,3-triazole-4-carboxylate] showed a pEC50 of 4.59.
For `COc1ccc(CC(=O)OCC(=O)Nc2ccc(Cl)cn2)cc1` [MLS000566076] the value was 3.97; for `CN1CCc2c(sc3c2c(=O)n(-c2ccccc2)c2n[nH]c(=S)n32)C1` [MLS000558136], 4.66; for `COc1cccc2cc(C(=O)N(C)C)c(=O)oc12` [8-methoxy-N,N-dimethyl-2-oxo-1-benzopyran-3-carboxamide], less than 3.52.
`CCOc1ccccc1C=NNC(=O)c1nnn(-c2nonc2N)c1CN1CCCC1` [1-(4-amino-1,2,5-oxadiazol-3-yl)-N-[(2-ethoxyphenyl)methylideneamino]-5-(pyrrolidin-1-ylmethyl)triazole-4-carboxamide] had a negative logarithm of the EC50 (pEC50) of 5.97.
For the compound `CCC(C)Nc1nc(N)c([N+](=O)[O-])c(Nc2ccccc2OC)n1` (centres undefined) [SMR000434817], the pEC50 is 6.20.
Under `COc1ccc(N(C(=O)c2ccncc2)S(=O)(=O)c2cccc([N+](=O)[O-])c2)cc1` [SMR000668685] stands less than 3.52; under `O=C(Nc1ccc2c(c1)OCO2)Nc1ccccn1` [N-1,3-benzodioxol-5-yl-N'-2-pyridinylurea], less than 3.52; under `Cc1nc(NCCCn2ccnc2)c2ccccc2n1` [N-(3-imidazol-1-ylpropyl)-2-methyl-quinazolin-4-amine;hydrochloride], less than 3.52.
Take `CCOc1ccc(CN=Nc2ccccn2)cc1OC` [MLS001005584]: the pEC50 was less than 3.52.
Compound `Cn1ncnc2c(=O)n(C)c(=O)nc1-2` had a pEC50 of 4.20.
Under `Cc1ccccc1-c1nnc(SCCOc2ccc3c(C)cc(=O)oc3c2)o1` stands less than 3.52; under `O=[N+]([O-])c1cc(Cl)ccc1N1CCCCC1` [MLS000856435], less than 3.52; under `COc1ccc(NC(=O)NC2CCCc3ccccc32)cc1` (centres undefined) [SMR000678136], less than 3.52.
`COc1ccc(Nc2nc(N)c([N+](=O)[O-])c(NCCO)n2)cc1` [2-[6-Amino-2-(4-methoxy-phenylamino)-5-nitro-pyrimidin-4-ylamino]-ethanol] showed a pEC50 of 5.58.
`CCCC1=Nc2ncnn2C(c2sccc2C)C1C(=O)OCC` (centres undefined) [SMR000440057] gave a pEC50 of less than 3.52.
In the case of `CCCn1nc(NC(=O)C(C)(C)C)c2cc3cc(OC)ccc3nc21` [N-(6-methoxy-1-propylpyrazolo[3,4-b]quinolin-3-yl)-2,2-dimethylpropanamide], the pEC50 was 4.19.
As to `CC1(C)CC(=O)C=C(Nc2ccc(Br)cn2)C1` [3-[(5-bromopyridin-2-yl)amino]-5,5-dimethylcyclohex-2-en-1-one], the pEC50 was less than 3.52.
For `Cc1cc([N+](=O)[O-])c(C)cc1-c1ccc(/C=N/n2cnnc2)o1` [1-[5-(2,5-dimethyl-4-nitrophenyl)furan-2-yl]-N-(1,2,4-triazol-4-yl)methanimine] the value was less than 3.52; for `Cc1cccc(Nc2nc(N)c([N+](=O)[O-])c(N3CCOCC3)n2)c1` [6-Morpholin-4-yl-5-nitro-N*2*-m-tolyl-pyrimidine-2,4-diamine], less than 3.52.
On to `Cc1ccc(C(=O)Nc2ccccc2C(=O)NCc2ccco2)cc1S(=O)(=O)N1CCCCC1` [SMR000076380], for which the pEC50 was less than 3.52.
As to `CCOC(=O)CCCSc1nnc(CCCCCN2C(=O)c3cccc4cccc(c34)C2=O)o1` [SMR000235858], the pEC50 was less than 3.52.
`Cc1oc2c(CN(C)C)c(O)ccc2c(=O)c1-c1ccc2ccccc2n1` [8-[(dimethylamino)methyl]-2-methyl-7-oxidanyl-3-quinolin-2-yl-chromen-4-one] had a pEC50 of less than 3.52.
`COc1ccc(/C=C2/Sc3ccc(C(=O)NCCCN4CCOCC4)cc3NC2=O)cc1OC` [(2E)-2-[(3,4-dimethoxyphenyl)methylidene]-N-[3-(4-morpholinyl)propyl]-3-oxo-4H-1,4-benzothiazine-6-carboxamide] gave a pEC50 of 4.22.
`CCCCC(=O)Nc1nn(CC(C)C)c2nc3ccccc3cc12` [SMR000043369] showed a pEC50 of less than 3.52.
In turn, `CCOC(=O)c1sc(Nc2ccccc2)nc1C` showed a pEC50 of less than 3.52.
Take `COC(=O)c1ccccc1OCCOc1ccccc1C(=O)OC`: the pEC50 was less than 3.52.
`N#Cc1c(-c2cccs2)cc(-c2cccnc2)nc1N` [SMR000043147] showed a pEC50 of 4.98.
For `O=C(/[O+]=N/[CH-]c1ccc(N2CCCCC2)c([N+](=O)[O-])c1)c1c(F)cccc1F` [MLS000326582], the pEC50 was less than 3.52.
